Assay results from ChEMBL document CHEMBL5465560, “Selectivity Literature for EUbOPEN Chemogenomic Library” (2024).

Experiments:
[1] = biological target: BDNF/NT-3 growth factors receptor (Homo sapiens) (UniProt Q16620); experiment: Selectivity interaction (KinomeScan (DiscoverX)) EUB0000695a NTRK2; details: at 100 nM
[2] = biological target: Serine/threonine-protein kinase 16 (Homo sapiens, UniProt O75716); experiment: Selectivity interaction (KinomeScan (DiscoverX)) EUB0001868a STK16; details: at 1 µM
[3] = biological target: Proto-oncogene tyrosine-protein kinase Src (Homo sapiens, UniProt P12931); experiment: Selectivity interaction (ActivX KiNativ screen (ex vivo kinase selectivity in human PBMCs)) EUB0001619a SRC; format: cell-based; details: PBMC, at 1 µM
[4] = biological target: Serine/threonine-protein kinase 32C (Homo sapiens) (UniProt Q86UX6); experiment: Selectivity interaction (KinomeScan (DiscoverX)) EUB0000607a STK32C; details: at 10 µM
[5] = biological target: T1, Lymphokine-activated killer T-cell-originated protein kinase (Homo sapiens) (UniProt Q96KB5); experiment: Selectivity interaction (Kinase panel (DSF assay)) EUB0001558a PBK
T1 sequence (whole entry): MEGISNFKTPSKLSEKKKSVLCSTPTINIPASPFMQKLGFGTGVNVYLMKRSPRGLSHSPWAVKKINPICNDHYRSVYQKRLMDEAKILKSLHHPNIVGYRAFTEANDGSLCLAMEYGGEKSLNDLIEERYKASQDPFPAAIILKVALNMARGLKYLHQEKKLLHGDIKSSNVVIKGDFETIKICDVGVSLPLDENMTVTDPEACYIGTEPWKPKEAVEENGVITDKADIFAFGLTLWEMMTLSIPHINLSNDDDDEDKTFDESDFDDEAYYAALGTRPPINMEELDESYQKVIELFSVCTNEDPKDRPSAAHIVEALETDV

[6] = biological target: T2, Serine/threonine-protein kinase haspin (Homo sapiens) (UniProt Q8TF76); experiment: Selectivity interaction (Kinase panel (DSF assay)) EUB0001558a GSG2
T2 sequence (whole entry): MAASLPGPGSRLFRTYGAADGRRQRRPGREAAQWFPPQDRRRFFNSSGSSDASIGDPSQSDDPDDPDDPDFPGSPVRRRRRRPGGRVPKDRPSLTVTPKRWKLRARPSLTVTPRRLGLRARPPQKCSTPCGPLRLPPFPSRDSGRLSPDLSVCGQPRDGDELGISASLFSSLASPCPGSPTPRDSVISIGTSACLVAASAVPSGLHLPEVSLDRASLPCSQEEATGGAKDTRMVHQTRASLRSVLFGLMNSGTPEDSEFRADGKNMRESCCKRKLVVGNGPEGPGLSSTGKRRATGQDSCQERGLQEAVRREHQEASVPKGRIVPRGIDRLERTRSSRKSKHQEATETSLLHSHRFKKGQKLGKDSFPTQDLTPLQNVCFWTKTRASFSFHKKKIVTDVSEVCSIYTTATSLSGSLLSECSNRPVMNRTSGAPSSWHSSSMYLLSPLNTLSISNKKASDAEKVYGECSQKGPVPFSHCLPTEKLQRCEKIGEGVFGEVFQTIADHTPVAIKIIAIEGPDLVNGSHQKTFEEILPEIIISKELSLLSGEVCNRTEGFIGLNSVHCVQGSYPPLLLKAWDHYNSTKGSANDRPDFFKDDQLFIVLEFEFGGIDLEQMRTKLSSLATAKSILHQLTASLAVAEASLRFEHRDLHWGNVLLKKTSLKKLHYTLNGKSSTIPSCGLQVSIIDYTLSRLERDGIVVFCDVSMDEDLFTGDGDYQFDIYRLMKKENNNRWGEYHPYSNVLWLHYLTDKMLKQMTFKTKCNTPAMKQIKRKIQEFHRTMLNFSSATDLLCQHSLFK

[7] = biological target: T3, Ankyrin repeat and protein kinase domain-containing protein 1 (Homo sapiens) (UniProt Q8NFD2); details: at 10 µM
T3 sequence (whole entry): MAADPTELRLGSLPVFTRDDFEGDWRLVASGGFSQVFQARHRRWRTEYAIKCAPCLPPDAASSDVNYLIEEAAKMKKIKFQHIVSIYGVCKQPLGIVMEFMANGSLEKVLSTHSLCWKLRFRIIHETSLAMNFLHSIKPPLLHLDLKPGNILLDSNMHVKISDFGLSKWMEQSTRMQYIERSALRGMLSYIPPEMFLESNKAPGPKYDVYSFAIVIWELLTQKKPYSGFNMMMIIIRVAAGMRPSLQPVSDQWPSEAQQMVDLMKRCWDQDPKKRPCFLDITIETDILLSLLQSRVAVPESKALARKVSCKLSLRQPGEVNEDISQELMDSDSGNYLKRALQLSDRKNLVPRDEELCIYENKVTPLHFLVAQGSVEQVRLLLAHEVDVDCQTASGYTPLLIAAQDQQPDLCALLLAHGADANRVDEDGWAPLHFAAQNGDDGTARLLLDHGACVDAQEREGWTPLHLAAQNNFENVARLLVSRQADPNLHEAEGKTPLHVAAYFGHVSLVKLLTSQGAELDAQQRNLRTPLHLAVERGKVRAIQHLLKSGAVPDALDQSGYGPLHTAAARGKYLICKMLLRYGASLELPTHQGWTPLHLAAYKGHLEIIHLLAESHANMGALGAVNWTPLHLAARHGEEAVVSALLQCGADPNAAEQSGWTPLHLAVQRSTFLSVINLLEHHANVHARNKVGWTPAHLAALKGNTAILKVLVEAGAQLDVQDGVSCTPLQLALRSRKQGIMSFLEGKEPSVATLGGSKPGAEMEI

Chain of Serine/threonine-protein kinase 16 (O75716 whole entry): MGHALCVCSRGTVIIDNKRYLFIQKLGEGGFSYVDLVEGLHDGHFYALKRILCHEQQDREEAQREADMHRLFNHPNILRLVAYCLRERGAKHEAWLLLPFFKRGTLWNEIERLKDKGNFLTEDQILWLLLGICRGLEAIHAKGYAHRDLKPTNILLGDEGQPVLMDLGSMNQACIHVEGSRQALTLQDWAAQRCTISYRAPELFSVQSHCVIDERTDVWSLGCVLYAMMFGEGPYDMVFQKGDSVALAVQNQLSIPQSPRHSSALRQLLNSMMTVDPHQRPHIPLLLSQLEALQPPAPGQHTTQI
Chain of Proto-oncogene tyrosine-protein kinase Src (P12931 2-536 limits assumed): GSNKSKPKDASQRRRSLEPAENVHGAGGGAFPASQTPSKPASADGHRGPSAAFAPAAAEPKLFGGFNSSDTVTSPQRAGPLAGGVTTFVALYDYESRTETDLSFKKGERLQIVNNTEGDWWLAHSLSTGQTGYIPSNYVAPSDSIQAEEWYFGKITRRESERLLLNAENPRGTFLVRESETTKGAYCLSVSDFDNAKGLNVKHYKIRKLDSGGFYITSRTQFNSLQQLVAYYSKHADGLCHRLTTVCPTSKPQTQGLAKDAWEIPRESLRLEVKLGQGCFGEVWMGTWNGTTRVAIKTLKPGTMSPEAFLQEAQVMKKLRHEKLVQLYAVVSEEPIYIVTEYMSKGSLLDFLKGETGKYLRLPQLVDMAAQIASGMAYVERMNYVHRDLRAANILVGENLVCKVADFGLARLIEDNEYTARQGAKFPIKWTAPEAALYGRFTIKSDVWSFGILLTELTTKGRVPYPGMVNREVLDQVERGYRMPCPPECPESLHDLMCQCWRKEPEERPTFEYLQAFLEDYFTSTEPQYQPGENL
Chain of Serine/threonine-protein kinase 32C (Homo sapiens) (Q86UX6 whole entry): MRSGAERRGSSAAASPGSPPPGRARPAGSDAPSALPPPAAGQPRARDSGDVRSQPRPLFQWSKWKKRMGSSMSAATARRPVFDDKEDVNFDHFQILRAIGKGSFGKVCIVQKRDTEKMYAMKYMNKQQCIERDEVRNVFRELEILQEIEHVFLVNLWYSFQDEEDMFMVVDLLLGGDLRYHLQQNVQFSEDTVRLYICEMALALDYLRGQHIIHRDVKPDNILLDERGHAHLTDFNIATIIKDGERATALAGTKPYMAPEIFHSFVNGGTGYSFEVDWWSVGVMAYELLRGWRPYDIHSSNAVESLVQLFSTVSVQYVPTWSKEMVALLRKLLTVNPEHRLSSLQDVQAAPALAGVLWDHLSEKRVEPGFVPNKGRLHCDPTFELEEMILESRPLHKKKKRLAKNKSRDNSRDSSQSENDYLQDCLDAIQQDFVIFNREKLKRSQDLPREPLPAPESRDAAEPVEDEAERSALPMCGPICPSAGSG
Chain of BDNF/NT-3 growth factors receptor (Homo sapiens) (Q16620 32-822 limits assumed): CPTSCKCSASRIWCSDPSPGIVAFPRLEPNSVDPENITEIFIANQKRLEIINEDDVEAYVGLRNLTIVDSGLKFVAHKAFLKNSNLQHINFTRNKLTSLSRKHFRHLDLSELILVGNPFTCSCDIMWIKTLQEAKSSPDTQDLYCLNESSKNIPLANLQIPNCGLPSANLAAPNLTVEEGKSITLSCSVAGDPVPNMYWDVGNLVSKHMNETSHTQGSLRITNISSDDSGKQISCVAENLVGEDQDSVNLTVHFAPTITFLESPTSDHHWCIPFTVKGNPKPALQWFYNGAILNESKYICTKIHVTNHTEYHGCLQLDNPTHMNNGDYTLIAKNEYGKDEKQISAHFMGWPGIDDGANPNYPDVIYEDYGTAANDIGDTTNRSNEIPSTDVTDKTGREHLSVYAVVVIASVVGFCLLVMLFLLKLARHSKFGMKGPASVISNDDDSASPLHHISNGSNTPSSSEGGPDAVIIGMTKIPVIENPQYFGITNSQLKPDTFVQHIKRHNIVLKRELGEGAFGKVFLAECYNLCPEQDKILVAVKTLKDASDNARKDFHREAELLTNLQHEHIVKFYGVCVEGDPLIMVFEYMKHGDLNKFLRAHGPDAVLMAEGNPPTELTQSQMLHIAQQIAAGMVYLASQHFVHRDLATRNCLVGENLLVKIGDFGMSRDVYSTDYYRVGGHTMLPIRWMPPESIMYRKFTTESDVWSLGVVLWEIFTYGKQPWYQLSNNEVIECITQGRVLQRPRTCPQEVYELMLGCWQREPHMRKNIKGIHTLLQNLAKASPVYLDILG

## Cc1cc(F)c(C(=O)Nc2cccc(-c3nncn3C(C)C)n2)cc1-n1cnc(C2CC2)c1
[1]
  % of control: 65%

## Cc1cc(-c2ccnc(Nc3cnn(C)c3)n2)ccc1CNC(=O)N1CC(OC(C)C)C1
[2]
  % of control: 23%

## N#Cc1cccc(-c2c[nH]c3ncnc(N4CCOCC4)c23)c1
[3]
  % of inhibition: -2%

## CNC(=O)Nc1ccc(-c2nc(N3CC4CCC(C3)O4)c3cnn(C4CCC5(CC4)OCCO5)c3n2)cc1
[4]
  % of control: 90%

## CC(C)(O)[C@H](F)CN1Cc2cc(NC(=O)c3cnn4cccnc34)c(N3CCOCC3)cc2C1=O
[5]
  dTM: -1.2 K
[6]
  dTM: 0.8 K

## CCN(CC)CCCCNc1ncc2cc(-c3cc(OC)cc(OC)c3)c(NC(=O)NC(C)(C)C)nc2n1
[7]
  % of control: 100%
